In US20240074968A1, “ORAL PHARMACEUTICAL COMPOSITION AND METHOD FOR PRODUCING PARTICULATE FORMULATION COMPRISING COMPOSITION” (Sunsho Pharmaceutical Co., Ltd., priority 2016, published 2024):

Assay: Solubility in water at 20° C.
Type: physicochemical
Excerpt: The above hydrophobic liquid (B) is a hydrophobic liquid that can dissolve or disperse well the above active ingredient (A) and is not a surfactant. In this case, the “hydrophobicity” of this hydrophobic liquid (B) should disperse as liquid particles containing the active ingredient (A), without dissolving into the water-based composition containing the water-soluble polymer substance (C) and the excipient (D) described below. […] When this “hydrophobicity” is insufficient, it becomes difficult to remain dispersed in the composition while containing the above active ingredient (A), and all or much of the active ingredient (A) becomes contained in the composition as crystals, which makes it impossible to achieve the purpose of the present invention.

With `CC(O)CO` (stereo not shown) [propylene glycol] the “solubility in water at 20° C.” value was “exceeding 10 mass %”.
